Here are results for 24 compounds from publication PMC7587931, “Affinity of Antifungal Isoxazolo[3,4-b]pyridine-3(1H)-Ones to Phospholipids in Immobilized Artificial Membrane (IAM) Chromatography” (Molecules, 2020).

Details of data set [1]: method as in PMID 31779124. Conditions: RP-LC, determined previously; cited from earlier work.
Data set [2] can be described thus: IAM-HPLC affinity to phospholipids (CHIIAM, gradient elution). The class given is physicochemical. Conditions: IAM.PC.DD2 column, gradient 0-85% acetonitrile, 10 mM phosphoric buffer pH 7.4, 30.0 °C.
Procedure: Thus, the CHI/CHIIAM values range from 0 to 100, corresponding to the concentration of acetonitrile in the mobile phase and reflecting the nature of the target compound: low and high values correspond to hydrophilic and lipophilic molecules, respectively.
All the HPLC experiments were carried out using a Prominence-1 LC-2030C 3D HPLC system (Shimadzu, Japan) equipped with a Diode-Array Detection (DAD) detector and an IAM.PC.DD2 column (10 × 4.6 mm; particle size 10.0 µm with an IAM guard column; Regis Technologies, Morton Grove, IL, USA). The LabSolution system (version 5.90, Shimadzu, Japan) was applied to control the HPLC system and for data collection. Before analysis, stock solutions of solutes were diluted to obtain concentrations of 100 μg/mL; the injected volume was 5 μL. The IAM-HPLC analyses were carried with a linear gradient of 0–85% phase B (where phase A was a 10 mM phosphoric buffer at pH 7.4 and phase B was acetonitrile) at a flow rate of 1.5 mL/min. The temperature of the chromatographic column was controlled and set to 30.0 °C and the analysis time was 6.5 min. The CHIIAM indices of the studied compounds were obtained using a calibration set of reference substances using the protocol proposed by Valko et al. [33]. Each HPLC analysis was run in triplicate.

In the case of `O=c1onc2[nH]c3ccccc3cc1-2` [Compound 1], the logkw in data set [1] is listed as 2.36.

`O=c1on(Cc2ccccc2)c2nc3ccccc3cc12` [Compound 2]: the logkw in data set [1] is recorded as 3.98.

Take `Cn1oc(=O)c2cc3ccccc3nc21` [Compound 3]: the logkw in data set [1] is reported as 2.87.

As to `CC(=O)n1oc(=O)c2cc3ccccc3nc21` [Compound 4], the logkw in data set [1] is given as 2.79.

Consider `O=C(c1ccccc1)n1oc(=O)c2cc3ccccc3nc21` [Compound 5], for which the logkw in data set [1] is on record as 3.76.

`Cc1cc(C)c2c(=O)on(Cc3ccccc3)c2n1` [Compound 6]: the logkw in data set [1] is 3.68.

For the compound `CC(=O)n1oc(=O)c2c(C)cc(C)nc21` [Compound 7], the logkw in data set [1] is on record as 2.53.

`CCn1oc(=O)c2c(C)cc(C)nc21` [Compound 8]: the logkw in data set [1] is 2.90.

`Cc1cc(C)c2c(=O)on(C(=O)c3ccccc3)c2n1` [Compound 9] had a CHIIAM in data set [2] of 29.99. In addition, in data set [1], the logkw was 2.77.

Consider `Cc1cc(C)c2c(=O)on(C)c2n1` [Compound 10], for which the logkw in data set [1] is given as 2.58.

On to `COc1cc(Cn2oc(=O)c3c(C)cc(C)nc32)cc(OC)c1` [Compound 11], for which the logkw in data set [1] is 3.83.

Turning to `CCCCn1oc(=O)c2c(C)cc(C)nc21` [Compound 13], the logkw in data set [1] is reported as 3.69.

For `Cc1cc(C)c2c(=O)o[nH]c2n1` [Compound 14], the CHIIAM result in data set [2] was “migrated together with the front of the mobile phase”. Moreover, the logkw in data set [1] is reported as 2.07.

Take `CCCn1oc(=O)c2c(C)cc(C)nc21` [Compound 15]: the logkw in data set [1] was 3.28.

Turning to `C#CCn1oc(=O)c2c(C)cc(C)nc21` [Compound 16], the logkw in data set [1] was 2.81.

`Cc1cc(C)c2c(=O)on(C(=O)c3ccc(F)cc3)c2n1` [Compound 17]: the logkw in data set [1] is 3.70.

Regarding `COc1cc(Cn2oc(=O)c3c(C)cc(C)nc32)cc(OC)c1OC` [Compound 18], in data set [1], the logkw is on record as 3.67.

On to `COc1ccc2nc3c(cc2c1)c(=O)on3C` [Compound 19], for which, in data set [1], the logkw is on record as 3.14.

`Cn1oc(=O)c2cc3cc(F)ccc3nc21` [Compound 20]: the logkw in data set [1] is 2.97.

In data set [2], `Cn1oc(=O)c2cc3cc(Cl)ccc3nc21` [Compound 21] displayed a CHIIAM of 33.40. Moreover, in data set [1], the logkw is 3.33.

Take `Cc1cc2cc3c(=O)on(C)c3nc2cc1C` [Compound 22]: in data set [1], the logkw was 3.50.

`Cc1ccc2cc3c(=O)on(C)c3nc2c1` [Compound 24]: the logkw in data set [1] is on record as 3.21.

On to `COc1ccc(OC)c2nc3c(cc12)c(=O)on3C` [Compound 25], for which the logkw in data set [1] is reported as 3.23.

Consider `Cc1ccc2nc3c(cc2c1)c(=O)on3C` [Compound 26], for which, in data set [1], the logkw is listed as 3.24.
